Series [1] in a line: Determination of stability against strong alkali (solid NaOH), visual inspection. Conditions: for Appearance of test solutions after 96 h of storage: 25 g of 40% by weight aqueous solution, ambient temperature; for Solubility / appearance with increasing NaOH amounts (summary): 40% by weight aqueous solution, 0 to 2.5 g solid NaOH added, up to 96 hours.
The nature of series [2]: Determination of solubility in water (Tsol). In kind it is physicochemical. Conditions: minimum temperature for forming a kinetically stable (clear) 50% by weight solution in water; cooled 30° C./h to precipitation, reheated 1° C./h.
Description: In each case, the solubility was calculated to refer to pure MGDA, without hydrate water.
The solubility of inventive mixtures and of comparison experiments was determined with an apparatus that allowed heating and cooling down liquid solutions. […] Then, the slurry of crystals of MGDA so obtained was again heated at a speed of 1° C./h until a clear solution was obtained. The slurry/solution was checked for solid particles by visible light scattering detection.
The above tests furnished the minimum temperature, Tsol, for forming a kinetically stable 50% by weight solution of the respective mixture of isomers. A higher temperature Tsol correlates with a lower solubility at ambient temperature.

For the compound `CC(C(=O)O)N(CC(=O)O)CC(=O)O` (stereo not drawn) [ee value 50.0, methyl glycine diacetic acid], the “Appearance of test solutions after 96 h of storage” value in series [1] (NaOH added 1.5 g (6 wt. % vs. 40% solution), * = after 48 hours, listed as MGDA: 50% ee) is reported as “clear liquid”; in series [1] (NaOH added 2.0 g (8 wt. % vs. 40% solution), * = after 48 hours, listed as MGDA: 50% ee) it was “clear liquid”; in series [1] (NaOH added 2.5 g (10 wt. % vs. 40% solution), ** = immediately after addition of NaOH, listed as MGDA: 50% ee), “clear liquid”. Also, the “Solubility / appearance with increasing NaOH amounts (summary)” value in series [1] (listed as mixture according to the present invention (50% ee)) is given as “remains clear”.

With `CC(C(=O)O)N(CC(=O)O)CC(=O)O` (stereo not drawn) [ee value zero, methyl glycine diacetic acid], the Tsol in series [2] came out at 103.8 °C. Also, the “Appearance of test solutions after 96 h of storage” value in series [1] (NaOH added 0 g (0 wt. % vs. 40% solution)) is on record as “clear liquid”; in series [1] (NaOH added 0.5 g (2 wt. % vs. 40% solution)) it was “clear liquid”; in series [1] (NaOH added 1.0 g (4 wt. % vs. 40% solution)) it was “clear liquid”; in series [1] (NaOH added 1.5 g (6 wt. % vs. 40% solution), * = after 48 hours, listed as Racemic MGDA), “turbid* liquid”; in series [1] (NaOH added 2.0 g (8 wt. % vs. 40% solution), * = after 48 hours, listed as Racemic MGDA), “turbid* liquid”; in series [1] (NaOH added 2.5 g (10 wt. % vs. 40% solution), ** = immediately after addition of NaOH, listed as Racemic MGDA) it was “turbid, precipitate**”. Further, the “Solubility / appearance with increasing NaOH amounts (summary)” value in series [1] (listed as racemic MGDA) is listed as “decreases with increasing NaOH amounts”.
